Assays:
[1] = tested on: HEK-Blue IL-23 cells (IL-23-stimulated STAT3 SEAP reporter; TYK2 JH2); assay: HEK-Blue IL-23 SEAP reporter assay for profiling TYK2 pseudokinase (JH2) inhibition; type: cell-based; conditions: 10 ng/mL human recombinant IL-23, SEAP reporter, read-out: IL23 (TYK2 inhibitory activity, IC50)
Experimental: (§1) Example B-1: HEK-Blue™ IL-23 and IFNα/β Reporter Assays for Profiling TYK2 Pseudokinase (JH2) Inhibition
(§2) HEK-Blue™ IL-23 and IFNα/β cells with a stably-integrated cytokine receptor and STAT3 or STAT1 express STAT-inducible secreted embryonic alkaline phosphatase (SEAP) reporter gene upon cytokine stimulation. These cells are plated in DMEM (Gibco) containing 10% heat-inactivated FBS (Gibco) and 100 U/mL PenStrep (Gibco) at 37° C. under 5% CO2 conditions for 20-22 hours. The cells are then pretreated with serially diluted test compounds for 60 min prior to stimulation with either 10 ng/mL human recombinant IL-23 (Miltenyl Biotech) or 1 ng/mL human recombinant IFNα (InvivoGen) for 22-24 hours for IL-23 or 16-18 h for IFNα. SEAP induction is measured using the QUANTI Blue™ Solution (InvivoGen) according to the manufacturer's instructions.

[2] = tested on: HEK-Blue IFNα/β cells (IFNα-stimulated STAT1 SEAP reporter; TYK2 JH2); assay: HEK-Blue IFNα/β SEAP reporter assay for profiling TYK2 pseudokinase (JH2) inhibition; type: cell-based; set-up: IFNα (TYK2 inhibitory activity, IC50): scale not given here; conditions: 1 ng/mL human recombinant IFNα; for IC50: Homo sapiens, HEK-Blue, read-out: IFNα (TYK2 inhibitory activity, IC50)
Experimental: as §1, §2

Row | Compound | IC50 [1] [nM] | IC50 [2] [nM] | IFNα (TYK2 inhibitory activity, IC50) [2]
1 | [2H]C([2H])([2H])NC(=O)c1nnc(NC(=O)C2CC2)cc1Nc1cccc2c1N(C)[C@H](C)c1nc(C)nn1-2 (single isomer, unassigned) [Compound 23] | < 30 | 30 to 300 | 
2 | [2H]C([2H])([2H])NC(=O)c1cnc(NC(=O)C2CC2)cc1Nc1cccc2c1N(C)[C@H](C)c1nc(C)nn1-2 (single isomer, unassigned) [Compound 24] | < 30 | 30 to 300 | 
3 | [2H]C([2H])([2H])NC(=O)c1cnc(NC(=O)C2CC2)cc1Nc1cccc2c1N(C)[C@H](C)c1nn(C)nc1-2 (single isomer, unassigned) [Compound 58] | < 30 | 300 to 1000 | 
4 | [2H]C([2H])([2H])NC(=O)c1nnc(NC(=O)C2CC2)cc1Nc1cccc2c1N(C)[C@H](C)c1nn(C)nc1-2 (single isomer, unassigned) [Compound 59] | < 30 | 30 to 300 | 
5 | [2H]C([2H])([2H])NC(=O)c1nnc(NC(=O)NC)cc1Nc1cccc2c1N(C)[C@H](C)c1nn(C)nc1-2 (single isomer, unassigned) [Compound 61] | 30 to 300 | 300 to 1000 | 
6 | [2H]C([2H])([2H])NC(=O)c1nnc(NC(=O)NC)cc1Nc1nccc2c1N(C)[C@H](C)c1nn(C)nc1-2 (single isomer, unassigned) [Compound 99] | 30 to 300 | 30 to 300 | 
7 | [2H]C([2H])([2H])NC(=O)c1cnc(NC(=O)C2CC2)cc1Nc1cc(F)cc2c1N(C)[C@H](C)c1nc(C)nn1-2 (single isomer, unassigned) [Compound 106] | 30 to 300 | > 1000 | 
8 | [2H]C([2H])([2H])NC(=O)c1nnc(NC(=O)C2CC2)cc1Nc1cc(F)cc2c1N(C)[C@H](C)c1nc(C)nn1-2 (single isomer, unassigned) [Compound 109] | 30 to 300 | 300 to 1000 | 
9 | CNC(=O)c1nnc(Nc2ccc(F)cn2)cc1Nc1cccc2c1OCc1nc(C)nn1-2 [Compound 2, 6-((5-fluoropyridin-2-yl)amino)-N-methyl-4-((2-methyl-4H-benzo[b][1,2,4]triazolo[1,5-d][1,4]oxazin-6-yl)amino)pyridazine-3-carboxamide] | > 1000 | > 1000 | 
10 | CNC(=O)c1nnc(NC(=O)C2CC2)cc1Nc1cccc2c1OCc1nc(CO)nn1-2 [Compound 3, 6-(cyclopropanecarboxamido)-4-((2-(hydroxymethyl)-4H-benzo[b][1,2,4]triazolo[1,5-d][1,4]oxazin-6-yl)amino)-N-methylpyridazine-3-carboxamide] | > 1000 | > 1000 | 
11 | [2H]C([2H])([2H])NC(=O)c1nnc(NC(=O)CN2CCOCC2)cc1Nc1cccc2c1N(C)Cc1nc(C)nn1-2 [Compound 9, 4-((2,5-dimethyl-4,5-dihydro-[1,2,4]triazolo[1,5-a]quinoxalin-6-yl)amino)-N-(methyl-d3)-6-(2-morpholinoacetamido)pyridazine-3-carboxamide] | 30 to 300 |  | C/D
12 | [2H]C([2H])([2H])NC(=O)c1nnc(NC(=O)CN(C)C)cc1Nc1cccc2c1N(C)Cc1nc(C)nn1-2 [Compound 14, 4-((2,5-dimethyl-4,5-dihydro-[1,2,4]triazolo[1,5-a]quinoxalin-6-yl)amino)-6-(2-(dimethylamino)acetamido)-N-(methyl-d3)pyridazine-3-carboxamide] | 30 to 300 | 300 to 1000 | 
13 | [2H]C([2H])([2H])NC(=O)c1nnc(Nc2cc(C)cc(C)c2)cc1Nc1cccc2c1N(C)Cc1nc(C)nn1-2 [Compound 16, 4-((2,5-dimethyl-4,5-dihydro-[1,2,4]triazolo[1,5-a]quinoxalin-6-yl)amino)-6-((3,5-dimethylphenyl)amino)-N-(methyl-d3)pyridazine-3-carboxamide] | 30 to 300 |  | C/D
14 | [2H]C([2H])([2H])NC(=O)c1nnc(NC(=O)C(C)C)cc1Nc1cccc2c1N(C)Cc1nc(C)nn1-2 [Compound 17, 4-((2,5-dimethyl-4,5-dihydro-[1,2,4]triazolo[1,5-a]quinoxalin-6-yl)amino)-6-isobutyramido-N-(methyl-d3)pyridazine-3-carboxamide] | 30 to 300 | 300 to 1000 | 
15 | [2H]C([2H])([2H])NC(=O)c1nnc(NC(=O)CC(F)(F)F)cc1Nc1cccc2c1N(C)Cc1nc(C)nn1-2 [Compound 18, 4-((2,5-dimethyl-4,5-dihydro-[1,2,4]triazolo[1,5-a]quinoxalin-6-yl)amino)-N-(methyl-d3)-6-(3,3,3-trifluoropropanamido)pyridazine-3-carboxamide] | 30 to 300 | 300 to 1000 | 
16 | [2H]C([2H])([2H])NC(=O)c1nnc(NC(=O)N(C)C)cc1Nc1cccc2c1N(C)Cc1nc(C)nn1-2 [Compound 20, 4-((2,5-dimethyl-4,5-dihydro-[1,2,4]triazolo[1,5-a]quinoxalin-6-yl)amino)-6-(3,3-dimethylureido)-N-(methyl-d3)pyridazine-3-carboxamide] | 30 to 300 | > 1000 | 
17 | [2H]C([2H])([2H])NC(=O)c1cnc(NC(=O)C2CC2)nc1Nc1cccc2c1N(C)Cc1nc(C)nn1-2 [Compound 21, 2-(cyclopropanecarboxamido)-4-((2,5-dimethyl-4,5-dihydro-[1,2,4]triazolo[1,5-a]quinoxalin-6-yl)amino)-N-(methyl-d3)pyrimidine-5-carboxamide] | 30 to 300 | 30 to 300 | 
18 | [2H]C([2H])([2H])NC(=O)c1nnc(NC(=O)C2(F)CC2)cc1Nc1cccc2c1N(C)Cc1nc(C)nn1-2 [Compound 37, 4-((2,5-dimethyl-4,5-dihydro-[1,2,4]triazolo[1,5-a]quinoxalin-6-yl)amino)-6-(1-fluorocyclopropane-1-carboxamido)-N-(methyl-d3)pyridazine-3-carboxamide] | 30 to 300 | > 1000 | 
19 | [2H]C([2H])([2H])NC(=O)c1nnc(NS(=O)(=O)C2CC2)cc1Nc1cccc2c1N(C)Cc1nc(C)nn1-2 [Compound 38, 6-(cyclopropanesulfonamido)-4-((2,5-dimethyl-4,5-dihydro-[1,2,4]triazolo[1,5-a]quinoxalin-6-yl)amino)-N-(methyl-d3)pyridazine-3-carboxamide] | > 1000 | > 1000 | 
20 | [2H]C([2H])([2H])NC(=O)c1nnc(NC(=O)[C@@H]2CC2(F)F)cc1Nc1cccc2c1N(C)Cc1nc(C)nn1-2 [Compound 41, (S)-6-(2,2-difluorocyclopropane-1-carboxamido)-4-((2,5-dimethyl-4,5-dihydro-[1,2,4]triazolo[1,5-a]quinoxalin-6-yl)amino)-N-(methyl-d3)pyridazine-3-carboxamide] | 30 to 300 | 30 to 300 | 
21 | [2H]C([2H])([2H])NC(=O)c1nnc(NC(=O)[C@H]2CC2(F)F)cc1Nc1cccc2c1N(C)Cc1nc(C)nn1-2 [Compound 42, (R)-6-(2,2-difluorocyclopropane-1-carboxamido)-4-((2,5-dimethyl-4,5-dihydro-[1,2,4]triazolo[1,5-a]quinoxalin-6-yl)amino)-N-(methyl-d3)pyridazine-3-carboxamide] | 30 to 300 | 30 to 300 | 
22 | [2H]C([2H])([2H])NC(=O)c1nnc(NC(=O)C2CC2)cc1Nc1cccc2c1N(C)[C@@H](C([2H])([2H])[2H])c1nc(C)nn1-2 [Compound 43, (S)-6-(cyclopropanecarboxamido)-4-((2,5-dimethyl-4-(methyl-d3)-4,5-dihydro-[1,2,4]triazolo[1,5-a]quinoxalin-6-yl)amino)-N-(methyl-d3)pyridazine-3-carboxamide] | 30 to 300 | 300 to 1000 | 
23 | [2H]C([2H])([2H])NC(=O)c1cnc(NC(=O)C2CC2)c(F)c1Nc1cccc2c1N(C)Cc1nn(C)nc1-2 [Compound 65, 6-(cyclopropanecarboxamido)-4-((2,5-dimethyl-4,5-dihydro-2H-[1,2,3]triazolo[4,5-c]quinolin-6-yl)amino)-5-fluoro-N-(methyl-d3)nicotinamide] | 300 to 1000 |  | C/D
24 | CNC(=O)c1nnc(Nc2ccc(F)cn2)cc1Nc1cccc2c1OCCCn1cnnc1-2 [Compound 74, 4-((6,7-dihydro-5H-benzo[b][1,2,4]triazolo[3,4-d][1,5]oxazocin-9-yl)amino)-6-((5-fluoropyridin-2-yl)amino)-N-methylpyridazine-3-carboxamide] | > 1000 | > 1000 | 
25 | CNC(=O)c1nnc(NC(=O)C2CC2)cc1Nc1cccc2c1OCCCn1cnnc1-2 [Compound 75, 6-(cyclopropanecarboxamido)-4-((6,7-dihydro-5H-benzo[b][1,2,4]triazolo[3,4-d][1,5]oxazocin-9-yl)amino)-N-methylpyridazine-3-carboxamide] | > 1000 | > 1000 | 
26 | [2H]C([2H])([2H])NC(=O)c1nnc(N2CCN(C(C)C)C2=O)cc1Nc1cccc2c1N(C)Cc1nc(C)nn1-2 [Compound 81, 4-((2,5-dimethyl-4,5-dihydro-[1,2,4]triazolo[1,5-a]quinoxalin-6-yl)amino)-6-(3-isopropyl-2-oxoimidazolidin-1-yl)-N-(methyl-d3)pyridazine-3-carboxamide] | 30 to 300 |  | C/D

— US12084458B2, “Substituted pyridines, pyridazines, and pyrimidines as TYK2 inhibitors” (Sudo Biosciences Limited, priority 2021, dated 2024)
